Test results: ChEMBL document CHEMBL5614432, “NRF2 inhibitors: Recent progress, future design and therapeutic potential” (Eur J Med Chem, 2024)

Columns and labels:
[1] = system: THP-1; assay: Cytotoxicity against human THP-1 cells incubated for 48 hrs by CCK8 assay; assay type: functional, cell-based; conditions: THP-1, 48 h
[2] = system: U-87 MG; assay: Inhibition of cell viability in human U-87 MG cells incubated for 24 hrs by MTT assay; assay type: functional, cell-based, U-87MG ATCC
[3] = system: T98G; assay: Inhibition of cell viability in human T98G cells incubated for 24 hrs by MTT assay; assay type: functional, cell-based
[4] = molecular target: T1, Nuclear factor erythroid 2-related factor 2 (Homo sapiens, UniProt Q16236); assay: Inhibition of NRF2 in human KYSE-70 cells; assay type: cell-based
T1 sequence (Q16236 whole entry): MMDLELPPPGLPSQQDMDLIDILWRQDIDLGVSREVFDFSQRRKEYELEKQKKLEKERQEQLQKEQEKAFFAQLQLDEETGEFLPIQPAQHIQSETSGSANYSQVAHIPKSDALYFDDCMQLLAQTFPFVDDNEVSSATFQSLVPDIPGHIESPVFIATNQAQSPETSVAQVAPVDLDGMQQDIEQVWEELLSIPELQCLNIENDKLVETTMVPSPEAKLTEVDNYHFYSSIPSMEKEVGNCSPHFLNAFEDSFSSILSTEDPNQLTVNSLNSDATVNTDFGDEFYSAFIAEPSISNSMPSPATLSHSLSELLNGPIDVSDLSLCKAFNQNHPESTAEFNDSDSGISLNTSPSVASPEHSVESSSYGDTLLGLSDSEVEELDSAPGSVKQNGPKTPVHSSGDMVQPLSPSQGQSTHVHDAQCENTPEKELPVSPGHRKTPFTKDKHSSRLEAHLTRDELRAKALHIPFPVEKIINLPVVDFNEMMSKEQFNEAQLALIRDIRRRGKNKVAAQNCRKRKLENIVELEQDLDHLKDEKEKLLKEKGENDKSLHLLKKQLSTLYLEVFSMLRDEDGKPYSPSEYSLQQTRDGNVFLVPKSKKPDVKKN

[5] = molecular target: T1, Nuclear factor erythroid 2-related factor 2; assay: Inhibition of NRF2 in human A549 cells; assay type: cell-based
[6] = system: A2780; assay: Inhibition of cell growth of human A2780 cells incubated for 24 to 96 hrs with re-current replacement of media containing compound for every 48 hrs by CCK8 assay; assay type: functional, cell-based
[7] = system: SK-OV-3; assay: Inhibition of cell growth of human SK-OV-3 cells incubated for 24 to 96 hrs with re-current replacement of media containing compound for every 48 hrs by CCK8 assay; assay type: functional, cell-based
[8] = system: Caov-4; assay: Inhibition of cell growth of human Caov-4 cells incubated for 24 to 96 hrs with re-current replacement of media containing compound for every 48 hrs by CCK8 assay; assay type: functional, cell-based
[9] = molecular target: NRF2-MAFG (Homo sapiens, UniProt O15525+Q16236); assay: Inhibition of NRF2/MAFG (unknown origin) heterodimerization using fluorescein-labeled ARE DNA duplex as substrate preincubated for 1 hr followed by substrate addition measured after 1 hr by FP assay; assay type: protein-complex assay
[10] = cells; conditions: Homo sapiens, Bel-7402, 48 h
Description: Cytotoxicity against human BEL-7402/ADM cells incubated for 48 hrs by MTT assay

[11] = Cytotoxicity against human MCF7-DOX cells incubated for 24 hrs by MTT assay; assay type: functional, cell-based
[12] = Cytotoxicity against human Leukemic stem cells incubated for 72 hrs by MTT assay; assay type: functional, cell-based; conditions: Leukemic stem cell

Chain of NRF2-MAFG (O15525 whole entry, one chain of several): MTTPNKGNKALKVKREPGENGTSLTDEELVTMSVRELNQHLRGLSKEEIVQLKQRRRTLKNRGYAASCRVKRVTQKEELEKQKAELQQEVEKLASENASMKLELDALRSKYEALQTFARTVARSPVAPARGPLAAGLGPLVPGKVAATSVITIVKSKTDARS

## CC(C)(C)c1ccc(Cn2nc(-c3ccc(Cl)cc3)cc2C(=O)NO)cc1
[1]
  IC50: 5.33 µM

## CC(C)c1cccc(=O)c(O)c1 [HINOKITIOL]
[2]
  IC50: 316 µM
[3]
  IC50: 152 µM

## O=C(CC1NCCCC1O)Cn1cnc2cc(Br)c(Cl)cc2c1=O (stereo not drawn) [HALOFUGINONE]
[4]
  IC50: 0.0223 µM
[5]
  IC50: 0.0372 µM

## N#CC1(c2ccc(NC(=O)c3cccnc3NCc3ccncc3)cc2)CCCC1 [RIVOCERANIB]
[6]
  IC50: ~20 µM
[7]
  IC50: ~20 µM
[8]
  IC50: ~20 µM

## Cc1ccccc1C(=O)N1CCc2cc(-c3nc(NC(=O)Cc4ccc5c(c4)OCO5)sc3C)ccc21
[9]
  IC50: 1.9 µM

## O=c1cc(-c2ccccc2)oc2cc(O)cc(O)c12 [CHRYSIN]
[10]
  IC50: ~30 µM

## COc1c(O)cc(O)c2c(=O)cc(-c3ccccc3)oc12 [WOGONIN]
[11]
  IC50: ~150 µM

## CC(C)[C@]12O[C@H]1[C@@H]1O[C@]13[C@]1(O[C@H]1C[C@H]1C4=C(CC[C@@]13C)C(=O)OC4)[C@@H]2O [TRIPTOLIDE]
[12]
  IC50: 0.0205 µM

## O=c1cc(-c2ccc(O)cc2)oc2cc(O)cc(O)c12 [APIGENIN]
[10]
  IC50: ~50 µM
